GI50 and TGI data for eleven molecules are collected here from PubChem BioAssay (NCI).

Some test systems named below: A549 NSCLC; MOLT-4 leukemia; OVCAR-3 ovarian; SF-268 CNS; SF-295 CNS; SK-MEL-5 melanoma; SK-OV-3 ovarian; SNB-75 CNS; TK-10 renal; UACC-62 melanoma.
Holding throughout (assay): NCI-60 cell line screen, 48 h

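Exposure lasted 48 hours, with cells grown in 96-well plates and compounds tested at five concentrations. GI50 is the concentration that inhibits growth by half. TGI: concentration producing complete growth inhibition.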

Turning to `Clc1nc(Cl)c2c(ncn2C/C=C\Cn2cnc3c(Cl)nc(Cl)nc32)n1`, the GI50 in the test with A549 NSCLC was 2.38 µM; in the test with MOLT-4 leukemia, 1.42 µM; in the test on OVCAR-3 ovarian, 1.68 µM; in the test with SF-268 CNS, 1.74 µM; in the test on SF-295 CNS, 8.99 µM; in the test with SK-MEL-5 melanoma it was 1.31 µM. Moreover, the GI50 was 2.48 µM in the test on SK-OV-3 ovarian, 2.19 µM in the test with SNB-75 CNS, 1.85 µM in the test on TK-10 renal and 1.83 µM with UACC-62 melanoma. The TGI in the test with A549 NSCLC worked out at 5.99 µM; with MOLT-4 leukemia, 3.25 µM; in the test with OVCAR-3 ovarian it was 3.04 µM; in the test on SF-268 CNS it was 5.49 µM; with SF-295 CNS, 21.1 µM; in the test on SK-MEL-5 melanoma, 2.79 µM. Further, the TGI in the test with SK-OV-3 ovarian was 9.07 µM; with SNB-75 CNS, 6.68 µM; with TK-10 renal, 3.45 µM; with UACC-62 melanoma it was 4.09 µM.
Take `CC(C)CC1=[N+]=C(NC#N)N=C(CCC(=O)Nc2ccccc2[N+](=O)[O-])C1`: the TGI in the test with A549 NSCLC, in the test on MOLT-4 leukemia, with OVCAR-3 ovarian, with SF-268 CNS, with SF-295 CNS and with SK-MEL-5 melanoma was over 100 µM each time. Moreover, the TGI in the test with SK-OV-3 ovarian, in the test with SNB-75 CNS, with TK-10 renal and with UACC-62 melanoma was over 100 µM each time.
Take `O=C1C2=C(c3ccccc31)C(c1ccccc1)NC(=S)N2` (stereo not given): the TGI in the test on A549 NSCLC, in the test with MOLT-4 leukemia, with OVCAR-3 ovarian, with SF-268 CNS, in the test with SF-295 CNS and in the test on SK-MEL-5 melanoma was over 100 µM in each case. Further, the TGI with SK-OV-3 ovarian was over 100 µM; with SNB-75 CNS it was 80 µM; in the test on TK-10 renal it was over 100 µM; in the test with UACC-62 melanoma it was over 100 µM.
On to `COc1cc(Nc2nc(N[C@H]3CCCC[C@@H]3N)nc3cc[nH]c(=O)c23)cc(OC)c1`, for which the GI50 in the test on A549 NSCLC is 2.57 µM; with MOLT-4 leukemia, 1.19 µM; in the test on OVCAR-3 ovarian, 8.71 µM; with SF-268 CNS, 2.17 µM; in the test on SF-295 CNS it was 1.5 µM; with SK-MEL-5 melanoma, 1.22 µM. Besides, the GI50 with SK-OV-3 ovarian is 0.388 µM; with SNB-75 CNS, 3.27 µM; in the test with TK-10 renal, 1.84 µM; with UACC-62 melanoma, 0.844 µM. Besides, the TGI in the test on A549 NSCLC was found to be 16.1 µM; with MOLT-4 leukemia it was 11.4 µM; in the test on OVCAR-3 ovarian, 21.8 µM; in the test on SF-268 CNS, 17.7 µM; in the test with SF-295 CNS, 4.46 µM; in the test with SK-MEL-5 melanoma, 6.06 µM. The TGI in the test with SK-OV-3 ovarian is 17.5 µM; in the test with SNB-75 CNS, 17.3 µM; with TK-10 renal, 19.3 µM; in the test with UACC-62 melanoma it was 19.1 µM.
Turning to `CCCCCCCCCCCCCCCC(=O)OCC1OC(n2c(O)c(N=NC(N)=S)c3ccc([N+](=O)[O-])cc32)C(OC(C)=O)C1OC(C)=O` (stereo not given), the TGI in the test with A549 NSCLC, in the test with MOLT-4 leukemia, in the test with OVCAR-3 ovarian, with SF-268 CNS, in the test on SF-295 CNS and in the test with SK-MEL-5 melanoma was over 100 µM each time. Further, the TGI in the test with SK-OV-3 ovarian, in the test on SNB-75 CNS, in the test with TK-10 renal and in the test with UACC-62 melanoma was over 100 µM in each case.
`CC(C)NC(=O)OCCS(=O)c1c(Cl)c(Cl)nn1C` (stereo not given): the TGI in the test with A549 NSCLC, in the test with MOLT-4 leukemia, in the test on OVCAR-3 ovarian, with SF-268 CNS, in the test on SF-295 CNS and in the test with SK-MEL-5 melanoma was over 100 µM each time. Further, the TGI is over 100 µM in the test on SK-OV-3 ovarian, over 100 µM in the test with SNB-75 CNS, over 100 µM with TK-10 renal and 67.7 µM in the test with UACC-62 melanoma.
As for `CC(=O)c1cc([N+](=O)[O-])ccc1OCC(=O)O`, the TGI with A549 NSCLC, in the test on MOLT-4 leukemia, in the test on OVCAR-3 ovarian, with SF-268 CNS, with SF-295 CNS and in the test with SK-MEL-5 melanoma was over 100 µM each time. Also, the TGI in the test with SK-OV-3 ovarian, with SNB-75 CNS, in the test on TK-10 renal and in the test on UACC-62 melanoma was over 100 µM throughout.
For `COc1ccc(NC(=O)c2cc(OC)c(OC)c(OC)c2)cc1`, the TGI is over 100 µM in the test on A549 NSCLC; over 100 µM with MOLT-4 leukemia; over 100 µM in the test with OVCAR-3 ovarian; over 94.8 µM in the test with SF-268 CNS; over 100 µM with SF-295 CNS; over 80.6 µM in the test on SK-MEL-5 melanoma. Besides, the TGI with SK-OV-3 ovarian, with SNB-75 CNS, with TK-10 renal and in the test on UACC-62 melanoma was over 100 µM throughout.
Consider `OCCCCCCOc1ccc(-c2cc(-c3ccccn3)nc(-c3ccccn3)c2)cc1`, for which the TGI with A549 NSCLC worked out at 6.42 µM; in the test on MOLT-4 leukemia it was 2.53 µM; with OVCAR-3 ovarian, 1.32 µM; in the test with SF-268 CNS, 1.32 µM; in the test on SF-295 CNS, 1.64 µM; in the test on SK-MEL-5 melanoma it was 3.48 µM. The TGI turned out to be 1.59 µM in the test on SK-OV-3 ovarian, 3.11 µM with SNB-75 CNS, 6.66 µM in the test on TK-10 renal and 0.933 µM with UACC-62 melanoma.
For the molecule `Cn1ccnc1C(=O)/C=C/c1ccc(CC(=O)Nc2ccccc2)cc1`, the GI50 is 6.6 µM with A549 NSCLC; 4.3 µM in the test on MOLT-4 leukemia; 1.87 µM in the test with OVCAR-3 ovarian; 3.72 µM in the test on SF-268 CNS; 5.44 µM in the test with SF-295 CNS; 4.18 µM in the test on SK-MEL-5 melanoma. Besides, the GI50 with SK-OV-3 ovarian was 9.3 µM; in the test with SNB-75 CNS, over 25 µM; in the test on TK-10 renal, 7.44 µM; in the test on UACC-62 melanoma it was 4.13 µM. For the same molecule, the TGI with A549 NSCLC was over 25 µM; with MOLT-4 leukemia, over 25 µM; in the test on OVCAR-3 ovarian, 5.37 µM; in the test with SF-268 CNS it was 13.9 µM; in the test on SF-295 CNS, 16.5 µM; in the test on SK-MEL-5 melanoma, 7.9 µM. The TGI is over 25 µM with SK-OV-3 ovarian, over 25 µM with SNB-75 CNS, 19.9 µM with TK-10 renal and 9.95 µM in the test on UACC-62 melanoma.
For the molecule `N#C/C(=C\c1cccc(O)c1)C(N)=O`, the TGI in the test with A549 NSCLC, in the test on MOLT-4 leukemia, in the test with OVCAR-3 ovarian, in the test with SF-268 CNS, in the test with SF-295 CNS and in the test with SK-MEL-5 melanoma was over 100 µM each time. Besides, the TGI was over 100 µM in the test on SK-OV-3 ovarian, 95.4 µM in the test on SNB-75 CNS, over 100 µM in the test with TK-10 renal and over 100 µM with UACC-62 melanoma.
